Experimental data as given in US20090060997A1, “PROCESS FOR PRODUCING A PHARMACEUTICAL PREPARATION FOR THERAPEUTIC TREATMENT OF ENDOMETRIOSIS CONTAINING A COMBINATION OF A GESTAGEN AND (6S)-5-METHYLTETRAHYDROFOLATE” (priority 2007, published 2009).

How the values were obtained:
[1] = system: women with laparoscopically diagnosed endometriosis; test: Clinical study in endometriosis: pain scale (Visual Analog Scale, VAS) questionnaire; assay type: in vivo; details: 6 months; for reduction in pain (VAS) at the end of the treatment compared to the beginning of the study: DNG 2 mg/day orally, LA 3.75 mg s.c. every 4 weeks
Description: (§1) 128 patients were randomly assigned to the LA group and 124 patients to the DNG group. The efficacy of the therapy was examined, among other ways, with the aid of a pain scale (Visual Analog Scale, VAS) questionnaire that was filled out by the patient.

[2] = design: species or system women; details: in vivo
Description: as §1

ovulation = details: daily dose; cited from earlier work
[3] = system: persons affected with endometriosis; details: 2 mg of dienogest daily for 24 weeks; cited from earlier work

| Compound | reduction in pain (VAS) at the end of the treatment compared to the beginning of the study [1] [mm] | drop in bone density [2] | ovulation-inhibiting dose (ovulation) [mg] | statistical analysis of pain reduction versus LA ([1]; DNG 2 mg/day orally vs LA 3.75 mg s.c. every 4 weeks) | result of the treatment of endometriosis [3] |
| --- | --- | --- | --- | --- | --- |
| CCNC(=O)[C@@H]1CCCN1C(=O)[C@H](CCCNC(=N)N)NC(=O)[C@H](CC(C)C)NC(=O)[C@@H](CC(C)C)NC(=O)[C@H](Cc1ccc(O)cc1)NC(=O)[C@H](CO)NC(=O)[C@H](Cc1c[nH]c2ccccc12)NC(=O)[C@H](Cc1c[nH]cn1)NC(=O)[C@@H]1CCC(=O)N1 [LA, leuprorelin acetate] | −46.0 | 4% | – | – | – |
| CC(=O)O[C@]1(C(C)=O)CC[C@H]2[C@@H]3C=C(Cl)C4=CC(=O)CC[C@]4(C)[C@H]3CC[C@@]21C [chlormadinone acetate] | – | – | 1.7 | – | – |
| CC(=O)O[C@]1(C(C)=O)CC[C@H]2[C@@H]3C=C(Cl)C4=CC(=O)[C@@H]5C[C@@H]5[C@]4(C)[C@H]3CC[C@@]21C [cyproterone acetate] | – | – | 1 | – | – |
| C[C@]12CCC3=C4CCC(=O)C=C4CC[C@H]3[C@@H]1CC[C@@]2(O)CC#N [dienogest, 17α-cyano-methyl-17-β-hydroxy-estra-4,9-dien-3-one] | −47.5 | no reduction in bone density | – | not inferior to LA | comparable to that with Danazol or with a GnRH agonist |
